# Results: ChEMBL document CHEMBL1201862, “PubChem BioAssay data set” (2004)
#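 Exposure lasted 48 hours, with cells grown in 96-well plates and compounds tested at five concentrations. GI50: concentration for 50% inhibition of growth.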 Activity calls are given as the source filed them. Cut-off read from the data, not from the text of the source: active = GI50 up to about 1.1 µM and inactive = higher.
# Tests used:
# Experiment in all cases: DTP human tumour cell line panel, 48 h
# CCRF-CEM = system: CCRF-CEM
# LOX IMVI = system: LOX IMVI
# NCI-H226 = system: NCI-H226
# SK-MEL-28 = system: SK-MEL-28
# ACHN = system: ACHN
# A549 = system: A549
# NCI-H522 = system: NCI-H522
# HCT-116 = system: HCT-116
# U-251 = system: U-251
# OVCAR-8 = system: OVCAR-8
# SN12C = system: SN12C
# HCC 2998 = system: HCC 2998
# SK-MEL-2 = system: SK-MEL-2
# Malme-3M = system: Malme-3M
# MOLT-4 = system: MOLT-4
# SNB-75 = system: SNB-75
# RXF 393 = system: RXF 393
SMILES,GI50 (CCRF-CEM),GI50 (LOX IMVI),GI50 (NCI-H226),GI50 (SK-MEL-28),GI50 (ACHN),GI50 (A549),GI50 (NCI-H522),GI50 (HCT-116),GI50 (U-251),GI50 (OVCAR-8),GI50 (SN12C),GI50 (HCC 2998),GI50 (SK-MEL-2),GI50 (Malme-3M),GI50 (MOLT-4),GI50 (SNB-75),GI50 (RXF 393)
C/C(=C\c1ccccc1)C(O)C(=O)c1nc2ccc(Cl)cc2nc1O (configuration not stated),13.6 µM (inactive),> 100 µM (inactive),> 100 µM (inactive),> 100 µM (inactive),> 100 µM (inactive),> 100 µM (inactive),52 µM (inactive),> 100 µM (inactive),> 100 µM (inactive),> 100 µM (inactive),> 100 µM (inactive),> 100 µM (inactive),> 100 µM (inactive),> 100 µM (inactive),48.3 µM (inactive),,
COc1ccc(C2=CC3CCC2C3)cc1 (configuration not stated),> 100 µM (inactive),> 100 µM (inactive),,> 100 µM (inactive),> 100 µM (inactive),> 100 µM (inactive),> 100 µM (inactive),> 100 µM (inactive),> 100 µM (inactive),> 100 µM (inactive),> 100 µM (inactive),,> 100 µM (inactive),> 100 µM (inactive),> 100 µM (inactive),> 100 µM (inactive),> 100 µM (inactive)
COc1cc([C@@H]2c3cc4c(cc3[C@@H](NC(=O)c3cccc(N)c3)C3COC(=O)[C@@H]32)OCO4)cc(OC)c1O (some centres not stated),0.0802 µM (active),0.491 µM (active),0.236 µM (active),8.63 µM (inactive),0.166 µM (active),0.0465 µM (active),,2.28 µM (inactive),0.242 µM (active),1.97 µM (inactive),0.445 µM (active),2.21 µM (inactive),3.3 µM (inactive),0.942 µM (active),< 0.0147 µM (active),1.48 µM (inactive),3.42 µM (inactive)
O=C(c1ccccc1)c1c(CC(O)c2cccnc2)n(C(=O)c2ccccc2)c2ccccc12 (configuration not stated),22.5 µM (inactive),,11.7 µM (inactive),17.7 µM (inactive),22.9 µM (inactive),29.4 µM (inactive),13.1 µM (inactive),15.9 µM (inactive),17 µM (inactive),25.3 µM (inactive),,16.5 µM (inactive),20.3 µM (inactive),23.8 µM (inactive),17.9 µM (inactive),3.72 µM (inactive),
CC1NOC(=O)C1/N=N/c1ccccc1Cl (configuration not stated),40.9 µM (inactive),20.6 µM (inactive),,32.7 µM (inactive),27 µM (inactive),63.7 µM (inactive),17.4 µM (inactive),37.2 µM (inactive),42.4 µM (inactive),> 100 µM (inactive),40.6 µM (inactive),48.3 µM (inactive),25.4 µM (inactive),25.5 µM (inactive),> 10 µM (inactive),21.2 µM (inactive),26.4 µM (inactive)
CN(NC1OC(CO)C(O)C(O)C1O)c1ccccc1 (configuration not stated),> 100 µM (inactive),> 100 µM (inactive),> 100 µM (inactive),> 100 µM (inactive),> 100 µM (inactive),> 100 µM (inactive),94.4 µM (inactive),> 100 µM (inactive),> 100 µM (inactive),> 100 µM (inactive),,43.4 µM (inactive),,> 100 µM (inactive),> 100 µM (inactive),,> 100 µM (inactive)
O=C1c2ccccc2C(=O)N1CCn1nc(-c2ccccc2)cc(-c2ccccc2)c1=O,23.2 µM (inactive),,50.1 µM (inactive),> 100 µM (inactive),34.7 µM (inactive),61.5 µM (inactive),18.6 µM (inactive),66.8 µM (inactive),71.1 µM (inactive),33.3 µM (inactive),44.6 µM (inactive),67.8 µM (inactive),82 µM (inactive),> 100 µM (inactive),26.4 µM (inactive),46.7 µM (inactive),> 100 µM (inactive)
COc1cccc(-c2nccc3c(OCc4ccccc4)c(OC)c(OC)cc23)c1,5.68 µM (inactive),> 100 µM (inactive),> 100 µM (inactive),,54.6 µM (inactive),> 100 µM (inactive),> 100 µM (inactive),7.57 µM (inactive),6.46 µM (inactive),> 100 µM (inactive),7.67 µM (inactive),58.3 µM (inactive),30.1 µM (inactive),2.94 µM (inactive),5.53 µM (inactive),> 100 µM (inactive),4.51 µM (inactive)
O=C(O)C1Cc2[nH]c3ccccc3c2C2CCCC12 (configuration not stated),> 100 µM (inactive),> 100 µM (inactive),5.15 µM (inactive),> 100 µM (inactive),> 100 µM (inactive),> 100 µM (inactive),> 100 µM (inactive),> 100 µM (inactive),> 100 µM (inactive),> 100 µM (inactive),> 100 µM (inactive),> 100 µM (inactive),> 100 µM (inactive),> 100 µM (inactive),> 100 µM (inactive),46.3 µM (inactive),
COc1cc2ccc3c4c(OC)cc(OC)c(OC)c4c([O-])[n+](C)c3c2cc1OC,,,,30.3 µM (inactive),> 24.8 µM (inactive),4.01 µM (inactive),2.55 µM (inactive),11.5 µM (inactive),1.39 µM (inactive),45.3 µM (inactive),1.74 µM (inactive),14.4 µM (inactive),21.9 µM (inactive),17.5 µM (inactive),1.67 µM (inactive),11.8 µM (inactive),
CC(=O)NNc1nc(C)c(C(=O)NNC(=O)C(=O)Nc2ccc(Cl)cc2)s1,25.3 µM (inactive),53 µM (inactive),> 100 µM (inactive),> 100 µM (inactive),54.6 µM (inactive),> 100 µM (inactive),31.8 µM (inactive),> 100 µM (inactive),> 100 µM (inactive),> 100 µM (inactive),> 100 µM (inactive),> 100 µM (inactive),> 100 µM (inactive),> 100 µM (inactive),37.4 µM (inactive),,
CCCn1cc2c(SC)nc(SC)nc2n1,> 100 µM (inactive),> 100 µM (inactive),32.2 µM (inactive),> 100 µM (inactive),> 100 µM (inactive),> 100 µM (inactive),,> 100 µM (inactive),> 100 µM (inactive),> 100 µM (inactive),> 100 µM (inactive),> 100 µM (inactive),> 100 µM (inactive),> 100 µM (inactive),> 100 µM (inactive),> 100 µM (inactive),> 100 µM (inactive)
O=C1C(=O)N(c2cc(Cl)ccc2Cl)C(=O)C(=O)C1c1nc2ccccc2o1,30.2 µM (inactive),> 100 µM (inactive),,> 100 µM (inactive),> 100 µM (inactive),> 100 µM (inactive),90.6 µM (inactive),> 100 µM (inactive),> 100 µM (inactive),> 100 µM (inactive),> 100 µM (inactive),> 100 µM (inactive),> 100 µM (inactive),> 100 µM (inactive),30.1 µM (inactive),> 67.6 µM (inactive),> 100 µM (inactive)
C1=CC(=NN=P(c2ccccc2)(c2ccccc2)c2ccccc2)C=C1,> 100 µM (inactive),> 100 µM (inactive),,> 100 µM (inactive),> 100 µM (inactive),> 100 µM (inactive),88.5 µM (inactive),,,> 100 µM (inactive),> 100 µM (inactive),> 100 µM (inactive),> 100 µM (inactive),> 100 µM (inactive),> 100 µM (inactive),> 100 µM (inactive),> 100 µM (inactive)
CN(C)/C(=N\C#N)N(Cc1ccccc1)Cc1ccccc1,44.2 µM (inactive),36.6 µM (inactive),> 100 µM (inactive),> 100 µM (inactive),> 100 µM (inactive),> 100 µM (inactive),24.9 µM (inactive),53.5 µM (inactive),> 100 µM (inactive),87.3 µM (inactive),> 100 µM (inactive),72.1 µM (inactive),> 100 µM (inactive),> 100 µM (inactive),,> 100 µM (inactive),42.6 µM (inactive)
C1CCN2CC3CONC3C2C1 (configuration not stated),> 100 µM (inactive),> 100 µM (inactive),> 100 µM (inactive),> 100 µM (inactive),> 100 µM (inactive),> 100 µM (inactive),> 100 µM (inactive),> 100 µM (inactive),> 100 µM (inactive),> 100 µM (inactive),> 100 µM (inactive),> 100 µM (inactive),> 100 µM (inactive),> 100 µM (inactive),> 100 µM (inactive),> 100 µM (inactive),> 100 µM (inactive)
c1ccc(N2N=C(c3ccco3)CC2c2ccco2)cc1 (configuration not stated),42.3 µM (inactive),> 100 µM (inactive),66.8 µM (inactive),> 100 µM (inactive),42.6 µM (inactive),> 100 µM (inactive),46.9 µM (inactive),32.5 µM (inactive),> 100 µM (inactive),> 100 µM (inactive),> 100 µM (inactive),,> 100 µM (inactive),> 100 µM (inactive),20.5 µM (inactive),22.3 µM (inactive),52.4 µM (inactive)
COCC1N=C(c2ccc(OC)c(OCc3ccccc3)c2OC)O[C@H]1c1ccccc1 (some centres not stated),15.3 µM (inactive),13.9 µM (inactive),29 µM (inactive),20.7 µM (inactive),12.9 µM (inactive),24.5 µM (inactive),20.8 µM (inactive),11.9 µM (inactive),18.1 µM (inactive),23.1 µM (inactive),20.5 µM (inactive),35.6 µM (inactive),23.4 µM (inactive),,5.81 µM (inactive),25.3 µM (inactive),29.3 µM (inactive)
